Our source for the EC50 values is ChEMBL document CHEMBL1147421, “Diamine derivatives with antiparasitic activities” (Bioorg Med Chem Lett, 2004).

Test [1] in a line: Effective concentration expressed as antiparasitic activity against Leishmania promastigotes (Leishmania donovani); NA = Not active. Format: functional.
The test system of test [2] is Plasmodium falciparum. The test is described as follows: Antiparasitic activity against Plasmodium falciparum D6. Format: functional, organism-based.
The test system of test [3] is Plasmodium falciparum. The test is described as follows: Antiparasitic activity against chloroquine-resistant Plasmodium falciparum W2. It counts as functional, organism-based.
A short description of test [4]: Antiparasitic activity against Leishmania promastigotes (Leishmania donovani). Format: functional.

On to `NCCCCN(Cc1ccccc1)Cc1ccncc1.O=C(O)C(F)(F)F`, for which the EC50 result in test [1], in test [2] and in test [3] was “Not Active” throughout.

Consider `COc1ccc(CN(CCCCN)Cc2ccccc2)cc1OC.O=C(O)C(F)(F)F`, for which the EC50 entry in test [2] was “Not Active”; in test [3] (Plasmodium falciparum), 3.62 µM; in test [4], 8.36 µM.

As for `NCCCCN(Cc1ccc(O)cc1)Cc1ccc(O)cc1.O=C(O)C(F)(F)F`, the EC50 result in test [1], in test [2] and in test [3] was “Not Active” each time.

With `COc1ccc(OC)c(CN(CCCCN)Cc2cc(OC)ccc2OC)c1.O=C(O)C(F)(F)F`, the EC50 entry in test [2] is “Not Active”; in test [3], “Not Active”; in test [4], 5.37 µM.

`COc1ccc(CN(CCCN)Cc2ccc(OC)c(O)c2)cc1O.O=C(O)C(F)(F)F`: the EC50 result in test [1], in test [2] and in test [3] was “Not Active” each time.

As for `COc1ccc(CN(CCCCN)Cc2ccc(OC)c(O)c2)cc1O.O=C(O)C(F)(F)F`, the EC50 result in test [1], in test [2] and in test [3] was “Not Active” in each case.

`NCCCN(Cc1ccncc1)Cc1ccncc1.O=C(O)C(F)(F)F`: the EC50 entry in test [1], in test [2] and in test [3] was “Not Active” throughout.

In the case of `NCCCCN(Cc1ccccc1)Cc1ccccc1.O=C(O)C(F)(F)F`, the EC50 entry is “Not Active” in test [2], “Not Active” in test [3] and 26.2 µM in test [4].

On to `CC(C)c1ccc(CN(CCCCN)Cc2ccc(C(C)C)cc2)cc1.O=C(O)C(F)(F)F`, for which the EC50 entry in test [2] is “Not Active”; in test [3] (Plasmodium falciparum), 7.29 µM; in test [4], 3 µM.

On to `COc1ccc(CN(CCCCN)Cc2ccc(OC)cc2OC)c(OC)c1.O=C(O)C(F)(F)F`, for which the EC50 result is “Not Active” in test [1], 7.76 µM in test [2] (Plasmodium falciparum) and “Not Active” in test [3].

Regarding `NCCCN(Cc1ccc(O)cc1)Cc1ccc(O)cc1.O=C(O)C(F)(F)F`, the EC50 entry in test [1], in test [2] and in test [3] was “Not Active” throughout.

Consider `NCCCN(Cc1ccccc1)Cc1ccc(Cc2ccncc2)cc1.O=C(O)C(F)(F)F`, for which the EC50 entry in test [1], in test [2] and in test [3] was “Not Active” each time.

As for `NCCCCN(Cc1ccccc1)Cc1ccc(Cl)cc1.O=C(O)C(F)(F)F`, the results for the concentration for a half-maximal effect (EC50) entry in test [2], in test [3] and in test [4] were “Not Active”, “Not Active” and 1.61 µM, respectively.

Take `NCCCCN(Cc1ccccc1)Cc1ccc(C(=O)O)cc1.O=C(O)C(F)(F)F`: the EC50 entry was “Not Active” in test [2], “Not Active” in test [3] and 10.3 µM in test [4].

Take `COc1cc(CN(CCCN)Cc2ccc(O)c(OC)c2)ccc1O.O=C(O)C(F)(F)F`: the EC50 result in test [1], in test [2] and in test [3] was “Not Active” throughout.

Take `NCCCN(Cc1ccccc1)Cc1ccc(C(=O)O)cc1.O=C(O)C(F)(F)F`: the values for the EC50 result in test [2], in test [3] and in test [4] were “Not Active”, “Not Active” and 8.97 µM, respectively.
